Reference: US20070048356A1, “Antimicrobial treatment of nonwoven materials for infection control” (priority 2005, published 2007)

Assays:
S. aureus = assay: Zone of inhibition test to measure leaching; format: cell-based; conditions: AATCC 147 and ASTM E 2149-01 protocols
Method: First, according to the American Association of Textile Chemists and Colorists (AATCC)-147 test protocol, in a dry-leaching test, the antimicrobial treated material is placed in an agar plate seeded with a known amount of organism population on the plate surface. The plate is then incubated for about 18-24 hours at about 35° C. or 37° C.±2° C. Afterwards, the agar plate is assessed. Any leaching of the antimicrobial from the treated material would result in a zone of inhibited microbial growth. […] The piece of material was allowed to sit for 24 hours in solution and then the supernatant of the solution was extracted. […] About 100 micro liters (μL) of supernatant is added to a 8 mm well cut into a seeded agar plate and allow to dry. […] In summary, these protocols are performed by incubating an inoculated plate containing either the actual treated material or a solution that has been exposed to the treated material. This plate is then analyzed for zones of inhibition of organism growth to detect if the antimicrobial has leached off of the material or into the solution.

[1] = system: Staphylococcus aureus (ATCC #27660); assay: Rapid Germicidal Time Kill on treated gloves; format: cell-based; conditions: for log reduction of organisms: nitrile gloves, versus applied organisms estimated from latex control
Excerpt: In another aspect, to assess the efficacy of how rapidly the applied antimicrobial agents kill, we employed a direct contact, rapid germicidal test, developed by Kimberly-Clark Corporation. This test better simulates real world working situations in which microbes are transferred from a substrate to glove through direct contacts of short duration. Also this test permits us to assess whether contact with the surface of the glove at one position will quickly kill microbes, whereas the solution-based testing of the ASTM E 2149-01 protocol tends to provide multiple opportunities to contact and kill the microbes, which less realistic in practice.
We applied an inoculum of a known amount of microbes to the antimicrobial-treated surface of a glove. After about 3-6 minutes, we assessed the number of microbes that remained on the surface of the treated glove. […] The concentration of organisms on the surface is given at an initial Zero Time point and at 3, 5, and 30 minute points.
To test the antimicrobial efficacy of a polyhexamethylene biguanide, we treated nitrile examination gloves according to ASTM protocol 04-123409-106 “Rapid Germicidal Time Kill.” In brief, about 50 μL of an overnight culture of Staphylococcus aureus (ATCC #27660, 5×10^8CFU/mL) was applied to the glove material. After a total contact time of about 6 minutes the glove fabric was placed into a neutralizing buffer. Surviving organisms were extracted and diluted in Letheen broth. Aliquots were spread plated on Tryptic Soy Agar plates. Plates were incubated for 48 hours at 35° C. Following incubation the surviving organisms were counted and the colony forming units (CFU) were recorded. The reduction (log10) in surviving organisms from test material versus control fabric was calculated: Log10 CFU/swatch Control−Log10 CFU/swatch Test Article=Log10 Reduction.

A. Niger (ATCC 16404) = assay: Dynamic Shake Flask (based on ASTM E 2149-01) on treated nonwoven; format: cell-based; conditions: Table 14, Spunbond
Method: The test organisms are grown in 25 mL appropriate broth medium for about 24±2 hours at 37±2° C. in a wrist action shaker. The bacterial culture is then transferred by placing about 100 μL aliquot in 25 mL of broth and grown again for about 24±2 hours at 37±2° C. The organisms are then centrifuged and washed three times with phosphate buffered saline (PBS). The organisms are then suspended in PBS to obtain an inoculum of approximately 1×10^8 CFU/mL.
The test articles and control swatches are exposed to an ultraviolet light source for about 5-10 minutes per side before testing to assure that the swatches are sanitized prior to inoculation with the bacteria. The test materials are brought into contact with a known population of test bacteria from the inoculum for a specified period of time. A sample is then plated at the end of the exposure time to enumerate the surviving bacteria. The log10 reduction form the control material and the original population is calculated using the following formula: Log10 Control*−Log10 CFU/swatch Test Article=Log10 Reduction
[…] This buffer solution contains a chemical to de-activate or “neutralize” the antimicrobial agent to (a) stop the active agent from killing the organisms after the designated time period and (b) to prevent artifacts that may arise from exposing the microorganisms to the antimicrobial in solution rather than solely on the substrate. Because each chemical used as an antimicrobial agent is a little different (ie: cationic, nonionic, metal, etc), a different neutralizer was likely added in each case to shut off the antimicrobial at the desired end point of the experiment. […] The neutralizer employed may be selected from a list that is commonly used in the field. These include, non-ionic degtergents, Bisulphate, lecithin, leethen broth, thiosulfate, thioglycolate, and pH buffers, Method similar to those described in American Society for Testing and Materials, Standard Practices for Evaluating Inactivators of Antimicrobial Agents Used in Disinfectant, Sanitizer, Antiseptic, or Preserved Products, Amer. Soc. Testing Mat. E 1054-91 (1991) can be used.

S. aureus (ATCC 6538) = assay: as above; format: cell-based
[2] = system: broad spectrum of microorganism (gram positive and gram negative bacteria, and fungi: mold and yeast); conditions: within 15 minutes; baseline data of Tables 12-15
Method: The experimental procedure is based on ASTM E 2149-01. In brief, the test is performed by first adding a 2″×2″ sample of treated material to a flask containing 50 mL of a buffered-saline solution. The flask is then inoculated with the challenge organism (6.5-7 log10 total) and shaken through mechanical means for a designated period of time. At specified time points, a sample of the solution is then removed and plated. Lastly, the plate is incubated, examined for microbial growth, and the number of colony forming units counted. The log reduction in organisms is measured by comparing the growth on the experimental plate to control plates with no antimicrobial treatment.

[3] = Table 25, nitrile glove samples, Inoculum: 8.08

Polyhexamethylene biguanide [PHMB] was tested, and the “zones of inhibition / leaching from the treated substrate” value (S. aureus) was “does not leach”, the “Result (Log10 Reduction, test material versus control)” value ([1]; Table 23, microtextured nitrile glove, total contact time about 6 minutes) was greater than 4.7 log10 and the “Result (Log10 Reduction versus PFE control)” value ([1]; Table 24, latex glove samples, total contact time about 6 minutes) was greater than 5.83 log10. For the same substance, the “Result (log reduction of test glove compared to control glove)” value [1, 3] was greater than 1.85 log, the “Result (log reduction of test glove compared to control glove), class” value [1, 3] was “NR (No Reduction = less than 0.5 log reduction of test glove compared to control glove.)” and the “log reduction of Staphylococcus aureus ATCC 27660” value ([1]; microtextured nitrile glove, machine applied at 0.03 g/glove) was “greater than four”. The “log reduction of organisms” value ([1]; hand sprayed with no heat) was “greater than one”, the “log reduction of organisms” value ([1]; machine sprayed under heated conditions) was “greater than 5 log” and the “Dynamic Shake Flask Log10 Reduction” value (A. Niger (ATCC 16404); contact time 1 min) was 4.00 Log10. The “Dynamic Shake Flask Log10 Reduction” value (A. Niger (ATCC 16404); contact time 5 min) was 4.00 Log10, the “Dynamic Shake Flask Log10 Reduction” value (A. Niger (ATCC 16404); contact time 15 min) was 4.00 Log10 and the “Dynamic Shake Flask Log10 Reduction” value (S. aureus (ATCC 6538); Table 12, Meltblown, contact time 1 min) was 4 Log10. The “Dynamic Shake Flask Log10 Reduction” value (S. aureus (ATCC 6538); Table 12, Meltblown, contact time 5 min) was 4 Log10, the “Dynamic Shake Flask Log10 Reduction” value (S. aureus (ATCC 6538); Table 12, Meltblown, contact time 15 min) was 4 Log10 and the “Dynamic Shake Flask Log10 Reduction” value (S. aureus (ATCC 6538); Table 12, SMS, contact time 1 min) was 4 Log10. The “Dynamic Shake Flask Log10 Reduction” value (S. aureus (ATCC 6538); Table 12, SMS, contact time 5 min) was 4 Log10, the “Dynamic Shake Flask Log10 Reduction” value (S. aureus (ATCC 6538); Table 12, SMS, contact time 15 min) was 4 Log10 and the “Dynamic Shake Flask Log10 Reduction” value (S. aureus (ATCC 6538); Table 12, Spunbond, contact time 1 min) was 4 Log10. The “Dynamic Shake Flask Log10 Reduction” value (S. aureus (ATCC 6538); Table 12, Spunbond, contact time 5 min) was 4 Log10, the “Dynamic Shake Flask Log10 Reduction” value (S. aureus (ATCC 6538); Table 12, Spunbond, contact time 15 min) was 4 Log10 and the “Dynamic Shake Flask Log10 Reduction” value (S. aureus (ATCC 6538); Table 16, Spunbond substrate, contact time 1 min, listed as 0.5% PHMB) was 2.31 Log10. For the same substance, the “Dynamic Shake Flask Log10 Reduction” value (S. aureus (ATCC 6538); Table 16, Spunbond substrate, contact time 1 min, listed as 1.0% PHMB) was 4.00 Log10, the “Dynamic Shake Flask Log10 Reduction” value (S. aureus (ATCC 6538); Table 16, Spunbond substrate, contact time 5 min) was 4.00 Log10 and the “Dynamic Shake Flask Log10 Reduction” value (S. aureus (ATCC 6538); Table 16, Spunbond substrate, contact time 15 min) was 4.00 Log10. The “Dynamic Shake Flask Log10 Reduction” value (S. aureus (ATCC 6538); Table 17, Spunbond substrate, contact time 1 min) was 0.18 Log10, the “Dynamic Shake Flask Log10 Reduction” value (S. aureus (ATCC 6538); Table 17, Spunbond substrate, contact time 5 min) was 0.33 Log10 and the “Dynamic Shake Flask Log10 Reduction” value (S. aureus (ATCC 6538); Table 17, Spunbond substrate, contact time 15 min) was 0.58 Log10. The “Dynamic Shake Flask Log10 Reduction” value (S. aureus (ATCC 6538); Table 19, SMS substrate, contact time 1 min) was 0.18 Log10, the “Dynamic Shake Flask Log10 Reduction” value (S. aureus (ATCC 6538); Table 19, SMS substrate, contact time 5 min) was 0.33 Log10 and the “Dynamic Shake Flask Log10 Reduction” value (S. aureus (ATCC 6538); Table 19, SMS substrate, contact time 15 min) was 0.58 Log10. For the same substance, the “log10 reduction in colony forming units (CFU)” value [2] was no less than 3 log10.
